According to ChEMBL document CHEMBL4507259 (2021):

Columns and labels:
[1] = target: Serine/threonine-protein kinase PLK2 (Homo sapiens) (UniProt Q9NYY3); conditions: Compound concentration 1000.0 nM
[2] = target: Dual specificity protein kinase CLK3 (Homo sapiens) (UniProt P49761); conditions: Compound concentration 1000.0 nM
[3] = tested on: Epidermal growth factor receptor (Homo sapiens), P00533 [T790M]; conditions: Compound concentration 1000.0 nM
[4] = target: Peroxisome proliferator-activated receptor gamma (Homo sapiens) (UniProt P37231); assay: PPARgamma (h) CEREP ligand profiling; conditions: filed as agonist, Compound concentration 10.0 uM
[5] = target: Leukocyte tyrosine kinase receptor (Homo sapiens) (UniProt P29376); conditions: Compound concentration 1000.0 nM
[6] = target: Protein kinase C epsilon type (Homo sapiens) (UniProt Q02156); conditions: Compound concentration 1000.0 nM
[7] = target: Serine/threonine-protein kinase PknB (Mycobacterium tuberculosis) (UniProt P9WI81); conditions: Compound concentration 1000.0 nM
[8] = target: Calcium/calmodulin-dependent protein kinase type 1B (Homo sapiens) (UniProt Q6P2M8); conditions: Compound concentration 1000.0 nM
[9] = target: Ca2+ channel (L, diltiazem site) (benzothiazepines); voltage-gated L-type calcium channel (family) (Homo sapiens, UniProt O60840+Q01668+Q13698+Q13936); assay: Ca2+ channel (L, diltiazem site) (benzothiazepines) CEREP ligand profiling; type: protein assay; conditions: compound concentration 10 uM
[10] = target: Cannabinoid receptor 1 (Homo sapiens) (UniProt P21554); assay: CB1 (h) CEREP ligand profiling; conditions: filed as agonist, Compound concentration 10.0 uM
[11] = target: Sodium-dependent noradrenaline transporter (Homo sapiens) (UniProt P23975); assay: norepinephrine transporter (h) CEREP ligand profiling; conditions: filed as antagonist, Compound concentration 10.0 uM
[12] = target: Dual specificity testis-specific protein kinase 1 (Homo sapiens) (UniProt Q15569); conditions: Compound concentration 1000.0 nM
[13] = target: Tyrosine-protein kinase receptor UFO (Homo sapiens) (UniProt P30530); conditions: Compound concentration 1000.0 nM
[14] = target: Serine/threonine-protein kinase 38-like (Homo sapiens) (UniProt Q9Y2H1); conditions: Compound concentration 1000.0 nM
[15] = target: Protein-tyrosine kinase 2-beta (Homo sapiens) (UniProt Q14289); conditions: Compound concentration 1000.0 nM
[16] = target: Cyclin-dependent kinase 2 (Homo sapiens) (UniProt P24941); conditions: Compound concentration 1000.0 nM
[17] = target: TGF-beta receptor type-2 (Homo sapiens) (UniProt P37173); conditions: Compound concentration 1000.0 nM
[18] = target: Mitogen-activated protein kinase kinase kinase 11 (Homo sapiens) (UniProt Q16584); conditions: Compound concentration 1000.0 nM
[19] = target: T1, Muscarinic acetylcholine receptor M4 (Homo sapiens) (UniProt P08173); conditions: Compound concentration 10.0 uM
T1 sequence (whole entry): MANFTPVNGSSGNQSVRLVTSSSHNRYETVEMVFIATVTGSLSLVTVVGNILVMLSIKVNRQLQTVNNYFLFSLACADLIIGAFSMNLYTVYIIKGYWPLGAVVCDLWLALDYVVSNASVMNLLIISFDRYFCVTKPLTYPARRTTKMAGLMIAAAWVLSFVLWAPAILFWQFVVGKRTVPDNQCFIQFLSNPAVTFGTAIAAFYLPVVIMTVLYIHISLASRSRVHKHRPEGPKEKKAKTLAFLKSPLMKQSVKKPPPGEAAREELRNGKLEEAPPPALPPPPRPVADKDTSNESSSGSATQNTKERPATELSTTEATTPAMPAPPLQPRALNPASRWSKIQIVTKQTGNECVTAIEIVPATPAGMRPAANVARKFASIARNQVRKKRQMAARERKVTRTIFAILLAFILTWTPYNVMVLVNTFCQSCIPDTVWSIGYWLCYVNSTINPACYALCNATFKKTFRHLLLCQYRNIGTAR

[20] = target: Tyrosine-protein kinase Lck (Homo sapiens) (UniProt P06239); conditions: Compound concentration 1000.0 nM
[21] = target: Ribosomal protein S6 kinase alpha-2 (Homo sapiens) (UniProt Q15349); conditions: Compound concentration 1000.0 nM
[22] = target: MAP/microtubule affinity-regulating kinase 3 (Homo sapiens) (UniProt P27448); conditions: Compound concentration 1000.0 nM
[23] = target: Serine/threonine-protein kinase RIO1 (Homo sapiens) (UniProt Q9BRS2); conditions: Compound concentration 1000.0 nM
[24] = target: Tyrosine-protein kinase ABL1 (Homo sapiens) (UniProt P00519); conditions: Compound concentration 1000.0 nM
[25] = target: TRAF2 and NCK-interacting protein kinase (Homo sapiens) (UniProt Q9UKE5); conditions: Compound concentration 1000.0 nM
[26] = target: Aurora kinase C (Homo sapiens) (UniProt Q9UQB9); conditions: Compound concentration 1000.0 nM
[27] = target: Receptor tyrosine-protein kinase erbB-2 (Homo sapiens) (UniProt P04626); conditions: Compound concentration 1000.0 nM
[28] = target: Phosphorylase b kinase gamma catalytic chain, skeletal muscle/heart isoform (Homo sapiens) (UniProt Q16816); conditions: Compound concentration 1000.0 nM
[29] = target: Serine/threonine-protein kinase Nek5 (Homo sapiens) (UniProt Q6P3R8); conditions: Compound concentration 1000.0 nM
[30] = target: Cyclin-dependent kinase 11A (Homo sapiens) (UniProt Q9UQ88); conditions: Compound concentration 1000.0 nM
[31] = target: Phosphatidylinositol 4-phosphate 5-kinase type-1 alpha (Homo sapiens) (UniProt Q99755); conditions: Compound concentration 1000.0 nM
[32] = target: GABA-A receptor; anion channel (Rattus norvegicus) (UniProt O09028+P15431+P18506+P18508+P19969+P20236+P23574+P23576+P28471+P28473+P30191+P62813+P63079+P63138+Q91ZM7+Q9ES14); conditions: Compound concentration 10.0 uM
[33] = target: Mitogen-activated protein kinase 6 (Homo sapiens) (UniProt Q16659); conditions: Compound concentration 1000.0 nM
[34] = target: Serine/threonine-protein kinase NIM1 (Homo sapiens) (UniProt Q8IY84); conditions: Compound concentration 1000.0 nM
[35] = target: Megakaryocyte-associated tyrosine-protein kinase (Homo sapiens) (UniProt P42679); conditions: Compound concentration 1000.0 nM
[36] = target: Phosphatidylinositol 4-phosphate 3-kinase C2 domain-containing subunit beta (Homo sapiens) (UniProt O00750); conditions: Compound concentration 1000.0 nM
Chain of Phosphatidylinositol 4-phosphate 3-kinase C2 domain-containing subunit beta (Homo sapiens) (O00750 whole entry, the tested form may be a part): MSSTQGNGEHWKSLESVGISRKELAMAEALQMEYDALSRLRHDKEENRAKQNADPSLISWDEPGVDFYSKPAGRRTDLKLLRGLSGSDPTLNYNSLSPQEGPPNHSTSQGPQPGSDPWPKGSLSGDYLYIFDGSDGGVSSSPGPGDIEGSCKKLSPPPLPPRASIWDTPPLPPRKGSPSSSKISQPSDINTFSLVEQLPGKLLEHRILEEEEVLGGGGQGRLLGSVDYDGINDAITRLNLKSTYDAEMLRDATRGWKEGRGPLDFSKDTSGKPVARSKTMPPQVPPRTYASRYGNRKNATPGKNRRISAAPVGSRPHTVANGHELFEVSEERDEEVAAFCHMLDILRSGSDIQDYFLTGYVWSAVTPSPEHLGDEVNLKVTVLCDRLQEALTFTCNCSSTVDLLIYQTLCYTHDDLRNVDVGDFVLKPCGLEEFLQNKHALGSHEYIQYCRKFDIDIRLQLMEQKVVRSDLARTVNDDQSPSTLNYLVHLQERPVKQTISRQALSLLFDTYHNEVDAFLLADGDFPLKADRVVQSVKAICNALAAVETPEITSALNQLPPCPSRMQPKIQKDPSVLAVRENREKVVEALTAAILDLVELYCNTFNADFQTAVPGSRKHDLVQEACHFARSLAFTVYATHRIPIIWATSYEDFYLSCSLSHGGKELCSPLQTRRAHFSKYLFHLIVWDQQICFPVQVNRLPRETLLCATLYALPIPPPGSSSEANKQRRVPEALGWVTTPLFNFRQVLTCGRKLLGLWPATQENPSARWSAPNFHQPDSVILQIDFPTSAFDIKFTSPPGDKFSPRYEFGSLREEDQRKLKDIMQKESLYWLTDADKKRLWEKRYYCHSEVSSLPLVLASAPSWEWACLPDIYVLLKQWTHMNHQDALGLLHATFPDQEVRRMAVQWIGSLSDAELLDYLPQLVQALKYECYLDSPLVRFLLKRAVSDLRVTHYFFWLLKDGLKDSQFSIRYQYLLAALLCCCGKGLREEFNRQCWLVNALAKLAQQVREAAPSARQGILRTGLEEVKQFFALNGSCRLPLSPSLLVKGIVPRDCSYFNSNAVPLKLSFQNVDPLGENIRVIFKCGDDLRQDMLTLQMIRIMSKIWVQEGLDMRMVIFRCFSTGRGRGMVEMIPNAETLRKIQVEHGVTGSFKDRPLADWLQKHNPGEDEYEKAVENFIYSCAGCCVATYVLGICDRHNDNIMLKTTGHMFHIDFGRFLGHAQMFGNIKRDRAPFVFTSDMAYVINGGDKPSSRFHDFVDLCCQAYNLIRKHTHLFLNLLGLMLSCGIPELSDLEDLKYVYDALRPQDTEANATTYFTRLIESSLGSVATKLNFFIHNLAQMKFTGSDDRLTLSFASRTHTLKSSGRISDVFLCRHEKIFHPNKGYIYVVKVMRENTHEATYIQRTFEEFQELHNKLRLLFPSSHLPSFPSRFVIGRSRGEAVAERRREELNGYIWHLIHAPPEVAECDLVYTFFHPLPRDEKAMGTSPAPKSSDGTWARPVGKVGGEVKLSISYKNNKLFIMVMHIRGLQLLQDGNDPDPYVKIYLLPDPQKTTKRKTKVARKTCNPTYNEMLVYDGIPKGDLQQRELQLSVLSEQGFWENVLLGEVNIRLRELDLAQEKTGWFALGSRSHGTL

Chain of Dual specificity testis-specific protein kinase 1 (Homo sapiens) (Q15569 whole entry, looked up): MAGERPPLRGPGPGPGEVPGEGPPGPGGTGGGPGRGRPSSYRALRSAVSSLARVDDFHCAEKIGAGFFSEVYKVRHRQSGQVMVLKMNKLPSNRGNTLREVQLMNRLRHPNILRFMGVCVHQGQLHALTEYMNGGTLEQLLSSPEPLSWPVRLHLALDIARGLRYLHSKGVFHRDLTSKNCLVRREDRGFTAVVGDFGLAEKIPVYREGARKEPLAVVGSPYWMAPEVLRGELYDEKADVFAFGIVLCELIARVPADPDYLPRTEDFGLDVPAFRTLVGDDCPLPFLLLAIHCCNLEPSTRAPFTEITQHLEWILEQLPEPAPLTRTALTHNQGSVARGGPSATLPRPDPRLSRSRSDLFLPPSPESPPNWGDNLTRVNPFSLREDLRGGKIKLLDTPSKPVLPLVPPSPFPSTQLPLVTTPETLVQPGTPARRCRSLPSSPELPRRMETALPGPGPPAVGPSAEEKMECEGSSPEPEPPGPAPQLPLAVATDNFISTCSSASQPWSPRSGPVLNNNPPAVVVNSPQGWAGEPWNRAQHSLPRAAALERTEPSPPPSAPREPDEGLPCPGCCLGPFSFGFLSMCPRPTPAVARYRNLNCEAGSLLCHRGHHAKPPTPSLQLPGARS
Chain of Dual specificity protein kinase CLK3 (Homo sapiens) (P49761 whole entry, looked up): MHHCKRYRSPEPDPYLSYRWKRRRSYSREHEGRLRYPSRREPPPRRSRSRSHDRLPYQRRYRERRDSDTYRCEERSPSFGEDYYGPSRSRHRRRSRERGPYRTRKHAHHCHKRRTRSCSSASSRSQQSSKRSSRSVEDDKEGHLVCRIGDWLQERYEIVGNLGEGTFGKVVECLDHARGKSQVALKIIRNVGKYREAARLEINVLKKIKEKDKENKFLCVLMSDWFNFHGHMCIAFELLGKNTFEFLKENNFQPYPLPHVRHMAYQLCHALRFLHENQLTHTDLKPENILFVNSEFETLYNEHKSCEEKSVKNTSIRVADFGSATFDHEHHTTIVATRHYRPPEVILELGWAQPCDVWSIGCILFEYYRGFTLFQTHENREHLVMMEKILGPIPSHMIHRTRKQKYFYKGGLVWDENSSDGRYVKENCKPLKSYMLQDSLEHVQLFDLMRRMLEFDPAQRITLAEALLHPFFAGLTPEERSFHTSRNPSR
Chain of Cannabinoid receptor 1 (Homo sapiens) (P21554 whole entry): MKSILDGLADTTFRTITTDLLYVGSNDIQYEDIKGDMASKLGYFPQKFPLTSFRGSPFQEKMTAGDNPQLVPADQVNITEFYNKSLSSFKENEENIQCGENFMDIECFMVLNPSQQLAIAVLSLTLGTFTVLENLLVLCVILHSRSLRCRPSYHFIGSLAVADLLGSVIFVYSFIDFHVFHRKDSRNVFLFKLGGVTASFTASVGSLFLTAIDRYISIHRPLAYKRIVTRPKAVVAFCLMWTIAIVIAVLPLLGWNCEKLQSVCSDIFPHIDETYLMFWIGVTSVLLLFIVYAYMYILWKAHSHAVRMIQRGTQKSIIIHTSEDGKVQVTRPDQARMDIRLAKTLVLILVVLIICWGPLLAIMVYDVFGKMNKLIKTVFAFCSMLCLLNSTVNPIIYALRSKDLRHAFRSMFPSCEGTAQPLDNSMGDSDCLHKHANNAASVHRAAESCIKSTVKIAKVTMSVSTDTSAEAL
Chain of Calcium/calmodulin-dependent protein kinase type 1B (Homo sapiens) (Q6P2M8 whole entry): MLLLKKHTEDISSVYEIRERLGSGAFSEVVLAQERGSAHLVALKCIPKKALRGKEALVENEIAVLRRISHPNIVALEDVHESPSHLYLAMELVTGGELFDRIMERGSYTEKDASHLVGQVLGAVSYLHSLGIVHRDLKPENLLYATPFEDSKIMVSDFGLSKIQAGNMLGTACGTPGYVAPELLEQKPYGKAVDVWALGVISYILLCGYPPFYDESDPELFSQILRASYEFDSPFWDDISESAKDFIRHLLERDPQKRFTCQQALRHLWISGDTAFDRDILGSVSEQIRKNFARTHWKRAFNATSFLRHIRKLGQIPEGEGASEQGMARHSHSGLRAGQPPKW
Chain of TRAF2 and NCK-interacting protein kinase (Homo sapiens) (Q9UKE5 whole entry, looked up): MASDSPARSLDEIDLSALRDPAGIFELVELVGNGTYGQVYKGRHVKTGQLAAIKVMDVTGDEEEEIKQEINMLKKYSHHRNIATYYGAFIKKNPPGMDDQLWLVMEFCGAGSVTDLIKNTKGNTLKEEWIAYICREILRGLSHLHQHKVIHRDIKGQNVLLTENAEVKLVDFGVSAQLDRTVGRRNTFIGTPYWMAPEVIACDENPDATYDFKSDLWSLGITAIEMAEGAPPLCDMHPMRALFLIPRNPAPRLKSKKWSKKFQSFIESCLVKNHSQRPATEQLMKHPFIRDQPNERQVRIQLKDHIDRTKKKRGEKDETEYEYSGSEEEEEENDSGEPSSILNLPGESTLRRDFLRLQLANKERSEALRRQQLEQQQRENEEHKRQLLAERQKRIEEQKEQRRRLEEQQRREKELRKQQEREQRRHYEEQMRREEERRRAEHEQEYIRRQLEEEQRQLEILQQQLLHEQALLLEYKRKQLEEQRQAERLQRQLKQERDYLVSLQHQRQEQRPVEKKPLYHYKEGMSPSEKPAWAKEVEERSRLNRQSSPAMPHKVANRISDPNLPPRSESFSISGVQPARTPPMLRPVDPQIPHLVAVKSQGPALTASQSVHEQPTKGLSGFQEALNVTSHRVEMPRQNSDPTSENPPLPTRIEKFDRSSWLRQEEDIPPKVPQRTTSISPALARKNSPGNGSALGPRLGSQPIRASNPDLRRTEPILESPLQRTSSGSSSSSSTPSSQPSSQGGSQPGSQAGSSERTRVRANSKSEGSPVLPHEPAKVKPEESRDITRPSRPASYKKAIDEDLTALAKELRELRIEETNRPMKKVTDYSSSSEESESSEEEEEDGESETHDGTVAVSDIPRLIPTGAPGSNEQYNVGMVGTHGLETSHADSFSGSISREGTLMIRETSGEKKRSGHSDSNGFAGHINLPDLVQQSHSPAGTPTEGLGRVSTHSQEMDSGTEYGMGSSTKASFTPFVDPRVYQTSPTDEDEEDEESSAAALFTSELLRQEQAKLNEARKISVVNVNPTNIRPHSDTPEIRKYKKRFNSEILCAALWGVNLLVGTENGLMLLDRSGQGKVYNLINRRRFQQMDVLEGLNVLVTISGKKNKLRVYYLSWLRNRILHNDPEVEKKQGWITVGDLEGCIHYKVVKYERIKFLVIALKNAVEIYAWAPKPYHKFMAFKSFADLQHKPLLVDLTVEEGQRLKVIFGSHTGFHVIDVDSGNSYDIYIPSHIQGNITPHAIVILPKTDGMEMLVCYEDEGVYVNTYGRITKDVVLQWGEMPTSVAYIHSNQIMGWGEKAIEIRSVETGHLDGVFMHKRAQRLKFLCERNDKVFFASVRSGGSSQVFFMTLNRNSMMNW

Structure (SMILES)	residual activity [1] [%]	residual activity [2] [%]	residual activity [3] [%]	inhibition [4] [%]	residual activity [5] [%]	residual activity [6] [%]	residual activity [7] [%]	residual activity [8] [%]	inhibition at 10 µM [9]	inhibition [10] [%]	inhibition [11] [%]	residual activity [12] [%]	residual activity [13] [%]	residual activity [14] [%]	residual activity [15] [%]	residual activity [16] [%]	residual activity [17] [%]	residual activity [18] [%]	inhibition [19] [%]	residual activity [20] [%]	other results
CNC(=O)Nc1ccc2c(c1)[C@@]1(CC2)OC(=O)N(CC(=O)N(Cc2ccc(F)cc2)[C@@H](C)C(F)(F)F)C1=O [A-486]	92	84	73	1	100	99	84	90	-5% (not active)	22	4	100	67	67	83	100	95	91	30.4	86	residual activity [21]: 87%; residual activity [22]: 100%; residual activity [23]: 100%; residual activity [24]: 93%; residual activity [25]: 87%; residual activity [26]: 100%; residual activity [27]: 98%; residual activity [28]: 100%; residual activity [29]: 95%; residual activity [30]: 94%; residual activity [31]: 89%; inhibition [32]: 15.6%; residual activity [33]: 97%; residual activity [34]: 76%; residual activity [35]: 100%; residual activity [36]: 99%
CNC(=O)Nc1ccc2c(c1)CC[C@@]21OC(=O)N(CC(=O)N(Cc2ccc(F)cc2)[C@@H](C)C(F)(F)F)C1=O [A-485]	91	83	73	10	100	22	83	100	2% (not active)	25	12	73	90	66	73	100	90	73	11.2	84	residual activity [21]: 76%; residual activity [22]: 100%; residual activity [23]: 100%; residual activity [24]: 84%; residual activity [25]: 93%; residual activity [26]: 100%; residual activity [27]: 100%; residual activity [28]: 100%; residual activity [29]: 100%; residual activity [30]: 83%; residual activity [31]: 95%; inhibition [32]: 19.7%; residual activity [33]: 100%; residual activity [34]: 71%; residual activity [35]: 71%; residual activity [36]: 100%
